# Assay results: US10258038B2, “Use of heterocyclic compounds for controlling nematodes” (BAYER CROPSCIENCE AKTIENGESELLSCHAFT, priority 2014, dated 2019)
# Read-outs that look alike come from different tables or passages of the source.
# Experiments:
# Pratylenchus penetrans = Pratylenchus penetrans test (soil application); type: in vivo; conditions: corn (Zea mays), after 2 weeks
# Protocol: Pratylenchus penetrans—Test (Soil Application)
# (§1) Solvent: 4 parts by weight acetone
# (§2) Emulsifier: 1 part by weight alkylaryl polyglycol ether
# (§3) To produce a suitable preparation of active compound, 1 part by weight of active compound is mixed with solvent and emulsifier at the ratio 4:1 and is diluted with water to the desired concentration.
# This compound solution is mixed with 500 ml soil infected with Pratylenchus penetrans (800 nematodes per 100 ml). The stated concentration refers to the amount of compound per unit of volume soil (mg/1=ppm). The treated soil is filled into 500 ml pots and 3 corn seeds (Zea mays) are sown.
# (§4) After 2 weeks the number of nematodes in the corn roots is determined by means of maceration. The roots are cleaned with water, cut into about 1 cm pieces and minced with water in a mixer for 10-15 seconds. The pieces are poured over a 0.2 mm-nematode sieve, rinsed with 400 ml water and the flow rate is collected. After 6 hours the supernatant is aspirated and the number of nematodes is determined microscopically with a counting chamber.
# (§5) The average number of nematodes per pot is determined and efficieny is calculated by using Abbott's formula:
# (§6) C=untreated control plants
# Pratylenchus zeae = Pratylenchus zeae test (PRATZE soil application); type: in vivo; conditions: application rate 2 ppm in soil; corn (Zea mays); after 2 weeks
# Protocol: Pratylenchus zeae—Test (PRATZE Soil Application)
# as §1, §2, §3
# This compound solution is mixed with 500 ml soil infected with Pratylenchus zeae (800 nematodes per 100 ml). The stated concentration refers to the amount of compound per unit of volume soil (mg/1=ppm). The treated soil is filled into 500 ml pots and 3 corn seeds (Zea mays) are sown.
# as §4, §5, §6
# Radopholus similis = Radopholus similis test (soil application); type: in vivo; conditions: application rate 2 ppm in soil; banana seedling; after 2 weeks
# Protocol: Radopholus similis—Test (Soil Application)
# as §1, §2, §3
# This compound solution is mixed with soil. The stated concentration refers to the amount of compound per unit of volume soil (mg/1=ppm). The treated soil is filled into 250 ml pots and a banana seedling is planted. Afterwards 2.5 ml of a nematode suspension (500 Radopholus similis/ml) are applied.
# After 2 weeks the number of nematodes in the banana roots is determined by means of maceration. The roots are cut off, cleaned with water and after adding 25-40 ml 0.01% lactic acid—acid fuchsin solution they are boiled in a microwave. On the next day the roots are rinsed over a 0.025 mm-nematode sieve, roughly minced and macerated with 15-20 ml water in an Ultra Turrax. After filling up with water to 45 ml, the number of nematodes in the supernatant is determined microscopically with a counting chamber.
# as §5, §6
# Globodera rostochiensis = Globodera rostochiensis test (soil application); type: in vivo; conditions: application rate 2 ppm in soil; potato seedling; after six weeks
# Protocol: Globodera rostochiensis—Test (Soil Application)
# as §1, §2
# as §3, with “concentration. This compound composition is mixed with soil. The stated concentration refers to the amount of compound per unit of volume soil (mg/1=ppm).” for “concentration.”
# 450 ml of this compound composition is mixed with 50 ml of soil infected with Globodera rostochiensis (20.000 nematodes/100 ml), filled in 500 ml pots and a potato seedling is planted.
# After six weeks the average number of cysts in the potato roots per pot are determined and efficieny is calculated by using Abbott's formula:
# as §6
# Meloidogyne incognita = Meloidogyne incognita in tomato test (MELGIN soil application); type: in vivo; conditions: application rate 2 ppm in soil; tomato seedling (Solanum lycopersicum); after five weeks
# Protocol: Meloidogyne incognita in Tomato—Test (MELGIN Soil Application)
# as §1, §2
# To produce a suitable preparation of active compound, 1 part by weight of active compound is mixed with solvent and emulsifier at the ratio 4:1 and is diluted with water to the desired concentration. The stated concentration refers to the amount of compound per unit of volume soil (mg/1=ppm).
# This compound composition is mixed with 500 ml of soil and 4 ml of a nematode suspension (1000 differenciated eggs and larvae of Meloidogyne incognita/ml). The stated concentration refers to the amount of compound per unit of volume soil (mg/1=ppm). The treated soil is filled in 500 ml pots and a tomato seedling (Solanum lycopersicum) is planted.
# After five weeks the average number of galls in the tomato roots per pot are determined and efficieny is calculated by using Abbott's formula:
# as §6
# physchem = type: physicochemical; conditions: reversed-phase C18, acidic range pH 3.4 (formic acid), 55° C.; for chromatographic logP: read-out: log P
# Protocol: 1) Description of Method for Determination of the log P Values (Formic Acid Method)
# Eluents for determination in the acidic range (pH 3.4):
# Eluent A: acetonitrile+1 ml of formic acid/liter. Eluent B: water+0.9 ml of formic acid/liter.
# The lambda max values were determined in the maxima of the chromatographic signals using the UV spectra from 200 nm to 400 nm.
Compound,"activity (efficiency by Abbott's formula, number of cysts in potato roots) (Globodera rostochiensis) [%]",log P (physchem; HPLC),also measured
"O=C(Nc1ccn(-c2c(F)cccc2F)n1)c1ccccc1C(F)(F)F [Compound I-1-75, N-[1-(2,6-difluorophenyl)-1H-pyrazol-3-yl]-2-(trifluoromethyl)benzamide]",100,–,"activity (efficiency by Abbott's formula, number of nematodes in corn roots) (Pratylenchus penetrans; application rate 2 ppm in soil): 88%; activity (efficiency by Abbott's formula, number of nematodes in corn roots) (Pratylenchus zeae): 89%; activity (efficiency by Abbott's formula, number of nematodes in banana roots) (Radopholus similis): 90%; activity (efficiency by Abbott's formula, number of galls in tomato roots) (Meloidogyne incognita): 100%; chromatographic logP (physchem; HPLC): 2.68"
"Nc1cnn(-c2c(F)cccc2F)n1 [Ic-8, 2-(2,6-Difluorophenyl)-2H-1,2,3-triazole-4-amine]",–,1.16,–
"N#Cc1nccnc1-n1ccc(NC(=O)c2ccccc2C(F)(F)F)n1 [Compound I-1-574, N-[1-(3-Cyanopyrazin-2-yl)-1H-pyrazol-3-yl]-2-(trifluoromethyl)benzamide]",80,–,"activity (efficiency by Abbott's formula, number of nematodes in corn roots) (Pratylenchus penetrans; application rate 4 ppm in soil): 97%"
"O=C(Nc1cnn(-c2c(F)cccc2F)n1)c1ccccc1C(F)(F)F [Compound I-2-35, N-[2-(2,6-Difluorophenyl)-2H-1,2,3-triazol-4-yl]-2-(trifluoromethyl)benzamide]",100,2.80,"activity (efficiency by Abbott's formula, number of nematodes in corn roots) (Pratylenchus penetrans; application rate 2 ppm in soil): 90%; activity (efficiency by Abbott's formula, number of galls in tomato roots) (Meloidogyne incognita): 100%"
"CC(=O)NC1=NN(c2c(F)cccc2F)CC1 [Ia-2, N-[1-(2,6-Difluorophenyl)-4,5-dihydro-1H-pyrazol-3-yl]acetamide]",–,1.46,–
"Nc1ccn(-c2ncc(F)cc2F)n1 [Ib-1, 1-(3,5-Difluoropyridin-2-yl)-1H-pyrazole-3-amine]",–,0.81,–
"CC(=O)Nc1ccn(-c2c(F)cccc2F)n1 [Ia-3, N-[1-(2,6-Difluorophenyl)-1H-pyrazol-3-yl]acetamide]",–,1.33,–
"CCN(C(=O)c1ccccc1C(F)(F)F)c1ccn(-c2ncc(F)cc2F)n1 [Compound I-1-468, N-[1-(3,5-difluoropyridin-2-yl)-1H-pyrazol-3-yl]-N-ethyl-2-(trifluoromethyl)benzamide]",100,–,chromatographic logP (physchem; reversed-phase C18 HPLC column): 3.23
"Nc1ccn(-c2c(F)cccc2F)n1 [Ia-4, 1-(2,6-Difluorophenyl)-1H-pyrazole-3-amine]",–,1.13,–
